Laboratory results reported in ChEMBL document CHEMBL1909046, “DrugMatrix in vitro pharmacology data”.

test system: not listed separately; assay: DRUGMATRIX: Calcium Channel Type L, Benzothiazepine radioligand binding (ligand: [3H] Diltiazem); format: cell membranes, Rattus norvegicus, Wistar, Brain, Membrane; settings: Not Active = under 50% inhibition at 10 µM

Question: Which IC50 does the source give for `Cn1c(=O)c2c(ncn2C)n(C)c1=O` [CAFFEINE] here?
Answer: Its IC50 is “Not Active”.

Question: And the Ki?
Answer: The Ki was “Not Active”.

Question: Which results are given for `ClC(Cl)(Cl)Cl` [CARBON TETRACHLORIDE]?
Answer: IC50: Not Active; Ki: Not Active

Question: Which results are given for `CO/N=C(\C(=O)N[C@@H]1C(=O)N2C(C(=O)O)=C(COC(C)=O)CS[C@H]12)c1csc(N)n1` [CEFOTAXIME]?
Answer: IC50: Not Active; Ki: Not Active

Question: For `CNC1=Nc2ccc(Cl)cc2C(c2ccccc2)=[N+]([O-])C1` [CHLORDIAZEPOXIDE], which IC50 is on record?
Answer: The IC50 was “Not Active”.

Question: What about the Ki of the same compound?
Answer: Its Ki is “Not Active”.

Question: For `Cc1cc(O)cc(C)c1Cl` [CHLOROXYLENOL], which IC50 is on record?
Answer: The IC50 was “Not Active”.

Question: What about the Ki of the same compound?
Answer: The Ki was “Not Active”.

Question: What does the source list for `CCCNC(=O)NS(=O)(=O)c1ccc(Cl)cc1` [CHLORPROPAMIDE]?
Answer: IC50: Not Active; Ki: Not Active

Question: Which results are given for `NS(=O)(=O)c1cc(C2(O)NC(=O)c3ccccc32)ccc1Cl` (centres undefined) [CHLORTHALIDONE]?
Answer: IC50: Not Active; Ki: Not Active

molecular target: D(3) dopamine receptor (Homo sapiens, UniProt P35462); assay: DRUGMATRIX: Dopamine D3 radioligand binding (ligand: [3H] Spiperone); format: cell membranes, CHO, Membrane; settings: cho
Sequence (P35462 whole entry): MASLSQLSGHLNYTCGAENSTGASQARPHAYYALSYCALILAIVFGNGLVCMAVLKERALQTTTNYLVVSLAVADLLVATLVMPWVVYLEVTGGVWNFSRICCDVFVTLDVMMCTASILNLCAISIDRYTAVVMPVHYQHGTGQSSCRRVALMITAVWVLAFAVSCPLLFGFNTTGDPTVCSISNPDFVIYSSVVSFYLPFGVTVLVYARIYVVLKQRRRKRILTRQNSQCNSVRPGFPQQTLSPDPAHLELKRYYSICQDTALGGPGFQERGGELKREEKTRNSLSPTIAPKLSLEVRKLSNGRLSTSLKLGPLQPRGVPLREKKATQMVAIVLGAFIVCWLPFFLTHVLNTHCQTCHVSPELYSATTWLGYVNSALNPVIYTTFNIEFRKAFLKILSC

Question: Which IC50 does the source give for `Cn1c(=O)c2c(ncn2C)n(C)c1=O` [CAFFEINE] here?
Answer: Its IC50 is “Not Active”.

Question: For `ClC(Cl)(Cl)Cl` [CARBON TETRACHLORIDE], which IC50 is on record?
Answer: Its IC50 is “Not Active”.

Question: Which IC50 does the source give for `CO/N=C(\C(=O)N[C@@H]1C(=O)N2C(C(=O)O)=C(COC(C)=O)CS[C@H]12)c1csc(N)n1` [CEFOTAXIME] here?
Answer: Its IC50 is “Not Active”.

Question: For `CNC1=Nc2ccc(Cl)cc2C(c2ccccc2)=[N+]([O-])C1` [CHLORDIAZEPOXIDE], which IC50 is on record?
Answer: Its IC50 is “Not Active”.

Question: For `Cc1cc(O)cc(C)c1Cl` [CHLOROXYLENOL], which IC50 is on record?
Answer: The IC50 was “Not Active”.

Question: Which IC50 does the source give for `CCCNC(=O)NS(=O)(=O)c1ccc(Cl)cc1` [CHLORPROPAMIDE] here?
Answer: The IC50 was “Not Active”.

Question: Which IC50 does the source give for `NS(=O)(=O)c1cc(C2(O)NC(=O)c3ccccc32)ccc1Cl` (centres undefined) [CHLORTHALIDONE] here?
Answer: Its IC50 is “Not Active”.

molecular target: Kappa-type opioid receptor (Homo sapiens, UniProt P41145); assay: DRUGMATRIX: Opiate kappa (OP2, KOP) radioligand binding (ligand: [3H] Diprenorphine); format: cell membranes, HEK293, Membrane; settings: hek293; Not Active = under 50% inhibition at 10 µM
Sequence (P41145 whole entry): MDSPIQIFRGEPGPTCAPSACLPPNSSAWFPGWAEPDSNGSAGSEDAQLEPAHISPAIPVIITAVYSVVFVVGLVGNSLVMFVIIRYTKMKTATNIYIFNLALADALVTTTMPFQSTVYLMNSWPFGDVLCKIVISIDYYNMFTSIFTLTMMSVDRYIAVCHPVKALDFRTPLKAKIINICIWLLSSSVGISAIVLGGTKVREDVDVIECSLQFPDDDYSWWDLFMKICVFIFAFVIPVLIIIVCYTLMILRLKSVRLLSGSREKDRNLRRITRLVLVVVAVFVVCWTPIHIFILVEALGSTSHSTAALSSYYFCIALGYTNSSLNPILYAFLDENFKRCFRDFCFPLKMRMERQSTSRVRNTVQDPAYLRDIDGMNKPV

Question: With `Cn1c(=O)c2c(ncn2C)n(C)c1=O` [CAFFEINE] as the compound, how does the IC50 read?
Answer: The IC50 was “Not Active”.

Question: Which IC50 does the source give for `ClC(Cl)(Cl)Cl` [CARBON TETRACHLORIDE] here?
Answer: Its IC50 is “Not Active”.

Question: With `CO/N=C(\C(=O)N[C@@H]1C(=O)N2C(C(=O)O)=C(COC(C)=O)CS[C@H]12)c1csc(N)n1` [CEFOTAXIME] as the compound, how does the IC50 read?
Answer: The IC50 was “Not Active”.

Question: With `CNC1=Nc2ccc(Cl)cc2C(c2ccccc2)=[N+]([O-])C1` [CHLORDIAZEPOXIDE] as the compound, how does the IC50 read?
Answer: Its IC50 is “Not Active”.

Question: With `Cc1cc(O)cc(C)c1Cl` [CHLOROXYLENOL] as the compound, how does the IC50 read?
Answer: Its IC50 is “Not Active”.

Question: With `CCCNC(=O)NS(=O)(=O)c1ccc(Cl)cc1` [CHLORPROPAMIDE] as the compound, how does the IC50 read?
Answer: Its IC50 is “Not Active”.

Question: With `NS(=O)(=O)c1cc(C2(O)NC(=O)c3ccccc32)ccc1Cl` (centres undefined) [CHLORTHALIDONE] as the compound, how does the IC50 read?
Answer: The IC50 was “Not Active”.

molecular target: T1, 5-hydroxytryptamine receptor 2C (Homo sapiens, UniProt P28335); assay: DRUGMATRIX: Serotonin (5-Hydroxytryptamine) 5-HT2C radioligand binding (ligand: [3H] Mesulergine); format: cell membranes, CHO-K1, Membrane; settings: cho-k1; Not Active = under 50% inhibition at 10 µM
T1 sequence (P28335 whole entry): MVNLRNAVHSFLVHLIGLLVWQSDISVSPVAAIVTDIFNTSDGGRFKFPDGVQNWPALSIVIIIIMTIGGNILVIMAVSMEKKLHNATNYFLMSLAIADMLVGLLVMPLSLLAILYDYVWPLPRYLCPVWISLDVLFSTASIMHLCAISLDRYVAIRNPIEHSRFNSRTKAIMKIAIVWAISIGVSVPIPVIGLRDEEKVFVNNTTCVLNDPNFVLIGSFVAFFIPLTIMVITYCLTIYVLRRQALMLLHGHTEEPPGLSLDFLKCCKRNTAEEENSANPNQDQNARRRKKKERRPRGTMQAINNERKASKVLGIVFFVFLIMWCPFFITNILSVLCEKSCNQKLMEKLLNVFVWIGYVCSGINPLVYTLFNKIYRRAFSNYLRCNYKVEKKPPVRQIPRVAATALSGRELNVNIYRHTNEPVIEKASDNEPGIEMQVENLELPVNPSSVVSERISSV

Question: With `Cn1c(=O)c2c(ncn2C)n(C)c1=O` [CAFFEINE] as the compound, how does the IC50 read?
Answer: The IC50 was “Not Active”.

Question: With `ClC(Cl)(Cl)Cl` [CARBON TETRACHLORIDE] as the compound, how does the IC50 read?
Answer: Its IC50 is “Not Active”.

Question: For `CO/N=C(\C(=O)N[C@@H]1C(=O)N2C(C(=O)O)=C(COC(C)=O)CS[C@H]12)c1csc(N)n1` [CEFOTAXIME], which IC50 is on record?
Answer: Its IC50 is “Not Active”.

Question: With `CNC1=Nc2ccc(Cl)cc2C(c2ccccc2)=[N+]([O-])C1` [CHLORDIAZEPOXIDE] as the compound, how does the IC50 read?
Answer: Its IC50 is “Not Active”.

Question: For `Cc1cc(O)cc(C)c1Cl` [CHLOROXYLENOL], which IC50 is on record?
Answer: The IC50 was “Not Active”.

Question: Which IC50 does the source give for `CCCNC(=O)NS(=O)(=O)c1ccc(Cl)cc1` [CHLORPROPAMIDE] here?
Answer: The IC50 was “Not Active”.

Question: With `NS(=O)(=O)c1cc(C2(O)NC(=O)c3ccccc32)ccc1Cl` (centres undefined) [CHLORTHALIDONE] as the compound, how does the IC50 read?
Answer: Its IC50 is “Not Active”.

molecular target: Vascular endothelial growth factor receptor 1 (Homo sapiens, UniProt P17948); format: cell-based; settings: huvec; note: in other assays of this panel Not Active means under 50% inhibition at 10 µM
Sequence (P17948 whole entry): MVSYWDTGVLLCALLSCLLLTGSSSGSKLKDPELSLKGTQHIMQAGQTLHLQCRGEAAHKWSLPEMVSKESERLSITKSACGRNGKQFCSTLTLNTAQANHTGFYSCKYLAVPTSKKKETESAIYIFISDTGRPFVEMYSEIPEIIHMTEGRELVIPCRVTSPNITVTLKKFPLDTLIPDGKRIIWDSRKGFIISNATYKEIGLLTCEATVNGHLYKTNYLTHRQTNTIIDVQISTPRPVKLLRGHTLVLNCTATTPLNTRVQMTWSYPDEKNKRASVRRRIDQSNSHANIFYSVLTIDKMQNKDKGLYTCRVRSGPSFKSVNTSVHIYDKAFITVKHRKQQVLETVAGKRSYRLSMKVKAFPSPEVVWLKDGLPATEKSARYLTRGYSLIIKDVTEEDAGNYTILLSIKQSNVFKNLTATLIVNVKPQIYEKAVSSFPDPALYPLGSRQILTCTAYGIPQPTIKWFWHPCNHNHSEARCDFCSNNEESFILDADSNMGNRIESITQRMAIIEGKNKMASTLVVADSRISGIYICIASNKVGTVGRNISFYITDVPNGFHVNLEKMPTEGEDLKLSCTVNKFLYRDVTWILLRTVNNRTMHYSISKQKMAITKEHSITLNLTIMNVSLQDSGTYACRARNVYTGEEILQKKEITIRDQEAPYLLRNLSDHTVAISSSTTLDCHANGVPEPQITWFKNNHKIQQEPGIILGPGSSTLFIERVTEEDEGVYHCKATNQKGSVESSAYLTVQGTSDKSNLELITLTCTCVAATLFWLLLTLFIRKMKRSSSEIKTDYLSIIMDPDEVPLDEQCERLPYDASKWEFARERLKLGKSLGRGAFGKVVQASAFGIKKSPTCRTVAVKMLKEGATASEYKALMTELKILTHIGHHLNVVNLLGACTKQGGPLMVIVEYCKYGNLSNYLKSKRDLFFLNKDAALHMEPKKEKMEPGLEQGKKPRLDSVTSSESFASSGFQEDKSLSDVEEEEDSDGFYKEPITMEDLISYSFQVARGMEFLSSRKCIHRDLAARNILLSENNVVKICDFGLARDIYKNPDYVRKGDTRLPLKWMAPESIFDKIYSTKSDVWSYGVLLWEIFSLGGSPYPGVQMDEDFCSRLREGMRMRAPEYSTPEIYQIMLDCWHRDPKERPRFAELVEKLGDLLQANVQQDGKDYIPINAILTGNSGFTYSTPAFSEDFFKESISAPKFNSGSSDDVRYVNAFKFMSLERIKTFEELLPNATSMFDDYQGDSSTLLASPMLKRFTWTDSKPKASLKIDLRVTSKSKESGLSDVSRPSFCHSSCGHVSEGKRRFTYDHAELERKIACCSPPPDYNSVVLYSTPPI

Question: For `Cn1c(=O)c2c(ncn2C)n(C)c1=O` [CAFFEINE], which IC50 is on record?
Answer: The IC50 was “Not Active”.

Question: With `ClC(Cl)(Cl)Cl` [CARBON TETRACHLORIDE] as the compound, how does the IC50 read?
Answer: The IC50 was “Not Active”.

Question: For `CO/N=C(\C(=O)N[C@@H]1C(=O)N2C(C(=O)O)=C(COC(C)=O)CS[C@H]12)c1csc(N)n1` [CEFOTAXIME], which IC50 is on record?
Answer: Its IC50 is “Not Active”.

Question: With `CNC1=Nc2ccc(Cl)cc2C(c2ccccc2)=[N+]([O-])C1` [CHLORDIAZEPOXIDE] as the compound, how does the IC50 read?
Answer: Its IC50 is “Not Active”.

Question: With `Cc1cc(O)cc(C)c1Cl` [CHLOROXYLENOL] as the compound, how does the IC50 read?
Answer: The IC50 was “Not Active”.

Question: For `CCCNC(=O)NS(=O)(=O)c1ccc(Cl)cc1` [CHLORPROPAMIDE], which IC50 is on record?
Answer: The IC50 was “Not Active”.

Question: Which IC50 does the source give for `NS(=O)(=O)c1cc(C2(O)NC(=O)c3ccccc32)ccc1Cl` (centres undefined) [CHLORTHALIDONE] here?
Answer: Its IC50 is “Not Active”.

molecular target: Platelet-activating factor receptor (Homo sapiens, UniProt P25105); format: tissue-based; settings: not given; note: in other assays of this panel Not Active means under 50% inhibition at 10 µM
Sequence (P25105 whole entry): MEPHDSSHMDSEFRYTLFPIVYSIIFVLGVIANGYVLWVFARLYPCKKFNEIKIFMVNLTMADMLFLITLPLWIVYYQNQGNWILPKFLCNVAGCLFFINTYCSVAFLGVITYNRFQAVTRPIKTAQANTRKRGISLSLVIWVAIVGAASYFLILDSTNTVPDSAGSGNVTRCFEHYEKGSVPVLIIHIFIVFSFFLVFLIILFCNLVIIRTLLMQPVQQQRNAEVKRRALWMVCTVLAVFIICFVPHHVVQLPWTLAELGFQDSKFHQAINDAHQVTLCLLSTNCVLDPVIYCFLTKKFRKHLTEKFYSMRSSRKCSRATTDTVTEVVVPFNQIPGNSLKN

Question: For `Cn1c(=O)c2c(ncn2C)n(C)c1=O` [CAFFEINE], which IC50 is on record?
Answer: Its IC50 is “Not Active”.

Question: Which IC50 does the source give for `ClC(Cl)(Cl)Cl` [CARBON TETRACHLORIDE] here?
Answer: Its IC50 is “Not Active”.

Question: With `CO/N=C(\C(=O)N[C@@H]1C(=O)N2C(C(=O)O)=C(COC(C)=O)CS[C@H]12)c1csc(N)n1` [CEFOTAXIME] as the compound, how does the IC50 read?
Answer: Its IC50 is “Not Active”.

Question: For `CNC1=Nc2ccc(Cl)cc2C(c2ccccc2)=[N+]([O-])C1` [CHLORDIAZEPOXIDE], which IC50 is on record?
Answer: Its IC50 is “Not Active”.

Question: For `Cc1cc(O)cc(C)c1Cl` [CHLOROXYLENOL], which IC50 is on record?
Answer: The IC50 was “Not Active”.

Question: For `CCCNC(=O)NS(=O)(=O)c1ccc(Cl)cc1` [CHLORPROPAMIDE], which IC50 is on record?
Answer: Its IC50 is “Not Active”.

Question: For `NS(=O)(=O)c1cc(C2(O)NC(=O)c3ccccc32)ccc1Cl` (centres undefined) [CHLORTHALIDONE], which IC50 is on record?
Answer: The IC50 was “Not Active”.
